Columns and labels:
[1] = organism: Homo sapiens; test: Inhibition of carnitine palmitoyltransferase in human fibroblasts assessed as [14]CO2 production from [1-14C]pyruvate at 5 to 50 uM by radiometric assay; parameters: scale not given: the % may be the effect or the level left
[2] = system: Rattus norvegicus; test: Reduction in blood glucose in adrenalectomized rat at 25 to 150 umol/kg, po; assay type: functional; parameters: scale not given: the % may be the effect or the level left
[3] = system: Rattus norvegicus; test: Increase in plasma FFAs level in fasted Sprague-Dawley rat at 8 to 300 umol/kg, po measured 2 to 4 hrs post dose; assay type: functional
[4] = system: Rattus norvegicus; test: Reduction in blood KB in Sprague-Dawley rat at 0.6 to 60 umol/kg, po; assay type: functional; parameters: scale not given: the % may be the effect or the level left
[5] = system: Rattus norvegicus; test: Reduction in blood glucose in po dosed Sprague-Dawley rat; assay type: functional
[6] = Toxicity in po dosed Sprague-Dawley rat assessed as hypoglycemic coma; assay type: organism-based; conditions: in vivo
[7] = system: Rattus norvegicus; test: Increase in coronary flow in perfused rat heart at 5 mg/kg, sc administered as single dose administered 120 mins before start of perfusion; assay type: functional; conditions: route subcutaneous
[8] = system: Sus scrofa; test: Reduction in blood glucose in STZ-treated diabetic pig at 10 to 40 umol/kg, iv measured 6 hrs post dose; assay type: functional; parameters: scale not given: the % may be the effect or the level left
[9] = Inhibition of carnitine palmitoyltransferase in hepatocytes from fasted rat assessed as oxidation of [U-14C]palmitate and production of acetoacetate and BHB; assay type: cell-based; conditions: Hepatocyte
[10] = system: Rattus norvegicus; test: Reduction in total cholesterol level in fasted Sprague-Dawley rat at 8 to 300 umol/kg, po measured 24 hrs post dose; assay type: functional; parameters: scale not given: the % may be the effect or the level left
[11] = Inhibition of rat FAO
[12] = system: Mus musculus; test: Reduction in FBG in db/db mouse at 19 umol/kg/day, po for 4 days measured 1 hr post dose after 16 hrs fasting; assay type: functional; parameters: scale not given: the % may be the effect or the level left
[13] = organism: Rattus norvegicus; test: Reduction in oxidation rate in rat liver mitochondria treated at 0.05% or 0.2% dose through food-admix for 12 weeks; assay type: functional, organism-based; parameters: scale not given: the % may be the effect or the level left
[14] = organism: Homo sapiens; test: Inhibition of carnitine palmitoyltransferase in human fibroblasts assessed as [14]CO2 production at 5 to 50 uM from [U-14C]palmitate by radiometric assay; parameters: scale not given: the % may be the effect or the level left
[15] = system: Rattus norvegicus; test: Reduction in blood KB in fasted Sprague-Dawley rat at 0.6 to 60 umol/kg, po; assay type: functional; parameters: scale not given: the % may be the effect or the level left
[16] = organism: Homo sapiens; test: Inhibition of carnitine palmitoyltransferase in human fibroblasts assessed as [14]CO2 production from [U-14C]glucose at 5 to 50 uM by radiometric assay; parameters: scale not given: the % may be the effect or the level left
[17] = organism: Rattus norvegicus; test: Reduction in oxidation rate in rat liver mitochondria treated at 0.05% or 0.2% dose through food-admix for 12 weeks by polarographic oxygen uptake method; assay type: functional, organism-based; parameters: scale not given: the % may be the effect or the level left
[18] = Inhibition of human FAO
[19] = system: Cavia porcellus; test: Reduction in blood glucose in SPF-white inbred guinea pig at 7 to 56 umol/kg, po; assay type: functional
[20] = system: Rattus norvegicus; test: Inhibition of CPT1 in fasted Sprague-Dawley rat liver mitochondria at 0.6 to 60 umol/kg, po measured 4 hrs post dose; assay type: functional
[21] = system: Rattus norvegicus; test: Reduction in blood glucose in po dosed fasted Sprague-Dawley rat; assay type: functional
[22] = system: Rattus norvegicus; test: Inhibition of CPT1 in Sprague-Dawley rat liver mitochondria at 0.6 to 60 umol/kg, po measured 4 hrs post dose; assay type: functional
[23] = system: Rattus norvegicus; test: Reduction in blood KB level in fasted Sprague-Dawley rat at 8 to 300 umol/kg, po; assay type: functional; parameters: scale not given: the % may be the effect or the level left
[24] = system: Rattus norvegicus; test: Reduction in blood glucose in fasted Sprague-Dawley rat at 0.6 to 60 umol/kg, po; assay type: functional; parameters: scale not given: the % may be the effect or the level left
[25] = system: Rattus norvegicus; test: Reduction in blood glucose in fasted Sprague-Dawley rat at 8 to 300 umol/kg, po measured 2 hrs post dose; assay type: functional; parameters: scale not given: the % may be the effect or the level left
[26] = system: Rattus norvegicus; test: Increase in plasma TG level in fasted Sprague-Dawley rat at 8 to 300 umol/kg, po measured 2 to 4 hrs post dose; assay type: functional
[27] = system: Mus musculus; test: Reduction in glucose AUC in db/db mouse at 19 umol/kg/day, po for 4 days administering last dose 1 hr before glucose load by OGTT test; assay type: functional; parameters: scale not given: the % may be the effect or the level left
[28] = system: Rattus norvegicus; test: Reduction in blood glucose in Sprague-Dawley rat at 600 umol/kg, po; assay type: functional; parameters: scale not given: the % may be the effect or the level left
[29] = system: Homo sapiens; test: Reduction in plasma TG level in NIDD patient at 12.5 to 50 mg/day, po for 14 days; assay type: functional; parameters: scale not given: the % may be the effect or the level left
[30] = system: Homo sapiens; test: Increase in glucose MCR in NIDD patient at 50 mg, po administered as single dose; assay type: functional
[31] = system: Rattus norvegicus; test: Reduction in fasting plasma glucose level in STZ-treated rat at 12.5 to 25 mg/kg, po; assay type: functional; parameters: scale not given: the % may be the effect or the level left; conditions: dose mg/kg 12.5-25
[32] = system: MOLM-13; test: Cytotoxicity against human MOLM13 cells assessed as reduction in cell viability; assay type: functional, cell-based
[33] = system: Mus musculus; test: Reduction in FBG level in db/db mouse at 50 mg/kg, po; assay type: functional; parameters: scale not given: the % may be the effect or the level left
[34] = system: Mus musculus; test: Reduction in FBG level in db/db mouse at 10 mg/kg, po; assay type: functional; parameters: scale not given: the % may be the effect or the level left
[35] = system: Homo sapiens; test: Increase in plasma FFAs level in NIDD patient at 50 to 200 mg/day, po bid for 3 days before meals; assay type: functional
[36] = organism: Homo sapiens; test: Increase in left ventricular ejection fraction in CHF patient at 80 mg/day for 3 months; assay type: functional, Heart left ventricle
[37] = system: Homo sapiens; test: Reduction in fat oxidation in NIDD patient at 100 mg/day, po for 3 days administered as single dose; assay type: functional; parameters: scale not given: the % may be the effect or the level left
[38] = system: Homo sapiens; test: Reduction in BHB level in NIDD patient at 50 to 200 mg/day, po bid for 3 days before meals; assay type: functional; parameters: scale not given: the % may be the effect or the level left
[39] = system: Homo sapiens; test: Reduction in plasma cholesterol level in NIDD patient at 50 to 200 mg/day, po bid for 3 days before meals; assay type: functional; parameters: scale not given: the % may be the effect or the level left
[40] = organism: Homo sapiens; test: Increase in stroke volume in CHF patient at 80 mg/day for 3 months; assay type: functional
[41] = system: Mus musculus; test: Reduction in daily water intake in db/db mouse at 10 to 20 mg/kg/day, po dosed life long through food-admix; assay type: functional; parameters: scale not given: the % may be the effect or the level left
[42] = organism: Homo sapiens; test: Increase in maximum cardiac output in CHF patient at 80 mg/day for 3 months measured during exercise; assay type: functional
[43] = system: Rattus norvegicus; test: Reduction in blood glucose in STZ-treated fasted rat at 0.2 to 18 mg/kg, po measured 4 hrs post dose; assay type: functional; parameters: scale not given: the % may be the effect or the level left; conditions: dose mg/kg 0.2-18
[44] = system: Mus musculus; test: Reduction in fasting glucose in db/db mouse at 10 to 20 mg/kg/day, po dosed life long through food-admix; assay type: functional; parameters: scale not given: the % may be the effect or the level left
[45] = system: Rattus norvegicus; test: Inhibition of CPT1 activity in blood KB level in STZ-treated fasted rat at 0.2 to 18 mg/kg, po; assay type: functional; conditions: dose mg/kg 0.2-18
[46] = system: Mus musculus; test: Reduction in glucose excretion in db/db mouse at 10 to 20 mg/kg/day, po dosed life long through food-admix; assay type: functional; parameters: scale not given: the % may be the effect or the level left
[47] = system: Homo sapiens; test: Reduction in plasma TG level in NIDD patient at 50 to 200 mg/day, po bid for 3 days before meals; assay type: functional; parameters: scale not given: the % may be the effect or the level left
[48] = system: Rattus norvegicus; test: Reduction in hepatic glucose production in STZ-treated rat at 12.5 to 25 mg/kg, po; assay type: functional; parameters: scale not given: the % may be the effect or the level left; conditions: dose mg/kg 12.5-25
[49] = system: Homo sapiens; test: Reduction in plasma LD/HDL ratio in NIDD patient at 12.5 to 50 mg/day, po for 14 days; assay type: functional; parameters: scale not given: the % may be the effect or the level left
[50] = system: Homo sapiens; test: Reduction in glucose appearance rate in NIDD patient at 100 mg/day, po for 3 days administered as single dose; assay type: functional; parameters: scale not given: the % may be the effect or the level left
[51] = system: Rattus norvegicus; test: Reduction in fasting serum FFAs level in high fat diet fed STZ-treated rat at 12.5 mg/kg/day, po for up to 4 weeks measured 3 days to 1 week post dose; assay type: functional; parameters: scale not given: the % may be the effect or the level left
[52] = system: Rattus norvegicus; test: Reduction in blood KB level in STZ-treated fasted rat at 0.2 to 18 mg/kg, po; assay type: functional; parameters: scale not given: the % may be the effect or the level left; conditions: dose mg/kg 0.2-18
[53] = system: Homo sapiens; test: Reduction in fasting plasma glucose in NIDD patient at 50 to 200 mg/day, po bid for 3 days before meals; assay type: functional; parameters: scale not given: the % may be the effect or the level left
[54] = system: Homo sapiens; test: Reduction in beta-hydroxy butyrate level in NIDD patient at 12.5 to 50 mg/day, po for 14 days; assay type: functional; parameters: scale not given: the % may be the effect or the level left
[55] = Cytotoxicity against human OCI-AML3 cells assessed as reduction in cell viability; assay type: functional, cell-based; conditions: OCI-AML-3
[56] = system: Homo sapiens; test: Reduction in whole body fat oxidation in human at 600 mg, po for 5 days; assay type: functional; parameters: scale not given: the % may be the effect or the level left
[57] = system: Hepatocyte; test: Inhibition of fatty acid synthesis in rat hepatocytes; assay type: functional, cell-based
[58] = system: Homo sapiens; test: Increase in metabolic clearance of glucose in NIDD patient at 50 mg, po administered as single dose; assay type: functional
[59] = system: Homo sapiens; test: Reduction in postprandial glucose in NIDD patient at 125 mg/day, po for 4 days (reference value: 10.5 mM); assay type: functional
[60] = system: Homo sapiens; test: Reduction in FBG level in NIDD patient at 12.5 to 50 mg/day, po for 14 days; assay type: functional; parameters: scale not given: the % may be the effect or the level left
[61] = system: Homo sapiens; test: Increase in carbohydrate oxidation in NIDD patient at 100 mg/day, po for 3 days administered as single dose; assay type: functional
[62] = system: Mus musculus; test: Reduction in urine volume in db/db mouse at 10 to 20 mg/kg/day, po dosed life long through food-admix; assay type: functional; parameters: scale not given: the % may be the effect or the level left
[63] = system: Rattus norvegicus; test: Reduction in plasma TG in high fat diet fed STZ-treated rat at 12.5 mg/kg/day, po for up to 4 weeks measured 3 days to 1 week post dose; assay type: functional; parameters: scale not given: the % may be the effect or the level left
[64] = system: Homo sapiens; test: Reduction in basal hepatic glucose production in NIDD patient at 50 to 200 mg/day, po bid for 3 days before meals; assay type: functional; parameters: scale not given: the % may be the effect or the level left

## O=C([O-])C1(CCCCCc2ccc(Cl)cc2)CO1.[Na+] (racemic)
[1]
  Activity: 24%
[2]
  Activity: 34%
[3]
  Activity: 300%
[4]
  Activity: <=40%
[5]
  ED50: 9 mg/kg
[6]
  LD50: 486 mg/kg
[7]
  Activity: 50%
[8]
  Activity: <=35%
[9]
  IC50: 5 µM
[10]
  Activity: 43%
[11]
  IC50: 95.9 µM
[12]
  Activity: 60%
[13]
  Activity: < 80%
[14]
  Activity: 90%
[15]
  Activity: 78%
[16]
  Activity: 250%
[17]
  Activity: < 50%
[18]
  IC50: 10.4 µM
[19]
  ED50: 8.7 mg/kg
[20]
  inhibition (INH): <=98%
[21]
  ED50: 8.7 mg/kg
[22]
  inhibition (INH): 99%
[23]
  Activity: <=75%
[24]
  Activity: <=25%
[25]
  Activity: <=50%
[26]
  Activity: <=290%
[27]
  Activity: 50%
[28]
  Activity: 80%

## CCOC(=O)C1(CCCCCCOc2ccc(Cl)cc2)CO1 (racemic) [rac-ETOMOXIR]
[29]
  Activity: 30%
[30]
  Activity: 33%
[31]
  Activity: 32%
[32]
  IC50: 51 µM
[33]
  Activity: 55%
[34]
  Activity: 43%
[35]
  Activity: 52%
[36]
  Activity: 25%
[37]
  Activity: 18%
[38]
  Activity: 44%
[39]
  Activity: 24%
[40]
  Activity: 30%
[41]
  Activity: 50%
[42]
  Activity: 38%
[43]
  Activity: 40%
[44]
  Activity: 50%
[45]
  inhibition (INH): <=99%
[46]
  Activity: 70%
[47]
  Activity: 54%
[48]
  Activity: 32%
[49]
  Activity: 35%
[50]
  Activity: 8%
[51]
  Activity: 56%
[52]
  Activity: 87%
[53]
  Activity: 18%
[54]
  Activity: 50%
[55]
  IC50: 51 µM
[56]
  Activity: 13.7%
[57]
  IC50: 2 µM
[58]
  Activity: 30%
[59]
  Activity: 8.3 mM
[60]
  Activity: <=45%
[61]
  Activity: 58%
[62]
  Activity: 70%
[63]
  Activity: 67%
[64]
  Activity: 18%
